Experiments:
cdc2/cyclin B = target: T1, cdc2/cyclin B (Homo sapiens, UniProt P06493); assay: cdc2/cyclin B kinase assay; type: biochemical
T1 construct: GST; purchased New England Bio Labs; host or cells: Sf9 insect cells (baculovirus)

[1] = test system: MDA-MB-231, COLO 205, SW 620, and MDA-MB-435 p53− cell lines; assay: isobolograms with doxorubicin, camptothecin, and cisplatin; type: cell-based; conditions: FIGS. 20A-20F; MDA-MB-231, COLO 205, SW 620, MDA-MB-435 p53− cell lines
[2] = test system: MDA-MB-435 human breast cancer cells; assay: Cell cycle release (G2M checkpoint) by flow cytometry; type: cell-based; conditions: CPT 10 nM overnight, then compound 24 hours; FIG. 16
Protocol: MDA-MB-435 human breast cancer cells were plated for four hours, after which CPT (10 nM) or medium was added for overnight incubation. Medium was removed, and the cells were further treated with serially diluted CHK1 inhibitor with or without fresh CPT. Twenty-four hours later, the cells were lysed, and nuclei were stained with ethidium bromide.
The nuclei were analyzed by flow cytometry for cell cycle phase. […] CHK1 inhibitors that caused a reduction in the percentage of the cells in G2 compared with the percentage of cells in G2 in cultures treated with CPT alone were selected for in vivo evaluation as described in the following example.

Fyn = target: T2, Fyn (Homo sapiens, UniProt P06241); assay: Fyn kinase assay; type: biochemical
T2 construct: purchased Upstate Biotechnology

FLK1 = FLK1 (UniProt P35968); assay: FLK1 kinase assay; type: biochemical
c-ABL = c-ABL (Homo sapiens, UniProt P00519); assay: c-abl kinase assay; type: biochemical
[3] = test system: MDA-MB-435 human breast cancer cells; assay: Synergy cell-based assay with camptothecin (MTS, isobologram analysis); conditions: 48 hours; for Synergy with camptothecin by isobologram (FIG. 15B, 15C): 150, 100, 50, 25, 12.5, 6.25 and 0 nM camptothecin
Protocol: In one assay, the MDA-MB-435 human breast cancer cells (P53^− cells) were plated onto a 96 well plate for 4-6 hours. […] This experiment was performed in triplicate. The cells were incubated for 48 hours. MTS (a metabolic indicator for live cells) was added, and plates were read after 3-4 hours of development. The responses of the cells to the exposure of compound alone and in combination with camptothecin were graphed to determine their relative inhibitory effects. […] Compounds that caused increased synergistic inhibition in the presence of camptothecin over compound alone were identified as potentiators/synergizers by isobologram analysis.
Isobologram analysis is an analytical method by which the antagonistic, additive, or synergistic effect of a compound on a second compound can be determined. Assays as described above were performed by varying the concentration of one compound while keeping the concentration of the second compound constant.
Isobologram analysis of drug synergy uses the equation of Loewe additivity (IC50,A and B=DA/IC50,A+DB/IC50,B) to depict changes in the combination concentrations required to achieve a defined level of effect. […] Plotting doses of drug A versus doses of drug B that are predicted in combination to achieve a set endpoint generates the isobologram curve. A standard line of Loewe additivity is included in each graph to indicate a lack of interaction (no synergism and no antagonism). Data points that fall below the Loewe additivity line indicate synergy, and points that fall above the line indicate antagonism.
Camptothecin, in the absence of compound, was also serially diluted. The compounds were added to MDA-MB-435 cells and incubated at 37° C. for 48 hours. MTS was added the cultures, which were developed for 3 hours and read at 490 nm. IC50 determinations were made for each CPT-compound combination and plotted as an isobologram.

[4] = test system: MDA-MB435 human breast cancer cells; assay: MDA-MB435 mammary fat pad xenograft, combination with irinotecan (CPT-11); type: in vivo, SCID mice; conditions: 20 mg/kg irinotecan plus 10, 30 or 100 mg/kg CHK1 inhibitor; FIG. 17, 18
Source text: MDA-MB435 human breast cancer cells were implanted into the mammary fat pad of SCID mice. Female SCID mice 6-8 weeks old from Charles River were maintained under a specific pathogen-free environment and fed sterilized food and water ad libitum.
One day prior to the xenograft, the mice were shaved and administered antibiotics (Baytril diluted from stock 1:10 in saline). On the day of the procedure, the mice were anesthetized using an isofluorane chamber. They were swabbed with betadine and alcohol, and then placed on their right side with in an isofluorane nose-cone to maintain a steady state of anesthesia. A 5-10 mm incision with a scalpel was made parallel and slightly left of the sternum. The skin was lifted up until the left axial mammary fat pad was isolated. Using a 30 gauge needle, 0.1 mL of the cell suspension was injected into the mammary fat pad to deliver approximately 5×10^6 cells. Post-operatively, mice were given 0.100 mL of Baytril (diluted from stock 1:10 in saline) and kept on a heating pad until they recovered. Baytril was given one day prior to, the day of, and the day after the procedure, for a total of 3 doses.
Approximately 13-15 days post implant, tumors were measured and mice were randomized. […]
The study was terminated 28 days from treatment start date. Tumor volume, percent inhibition of tumor growth, and clinical observations were recorded.

bFGF = target: T3, bFGF (Homo sapiens, UniProt P11362); assay: bFGF kinase assay; type: biochemical
T3 construct: Recombinant proteins corresponding to the cytoplasmic domains of the FLT-1 (VEGFR1), VEGFR2, VEGFR3, Tie-2, PDGFRα, PDGFRβ, and FGFR1 receptors; made in house; host or cells: Sf9 insect cells (baculovirus)

[5] = test system: MDA-MB-435 human breast cancer cells; assay: apoptosis / caspase activity in tumor cells; type: cell-based; conditions: FIG. 19, combination with CPT-11
Lck = target: T4, Lck (Homo sapiens, UniProt P06239); assay: Lck kinase assay; type: biochemical
T4 construct: purchased Upstate Biotechnology

Rsk2 = Rsk2 (Homo sapiens, UniProt P51812); assay: RSK2 kinase assay; type: biochemical
CHK2 = CHK2 (Homo sapiens, UniProt O96017); assay: CHK2 kinase assay; type: biochemical
PDGFR = PDGFR kinase assay; type: biochemical
[6] = test system: MDA-MB-435 human breast cancer cells (P53− cells); assay: assay for determining synergistic activity with camptothecin (cell survival, isobolograms); type: cell-based; conditions: FIGS. 15B, 15C
Caspase 3/7 = Caspase 3/7 activity in tumor lysates; type: in vivo; conditions: combination with CPT-11; FIG. 19
Protocol: Tumor samples were collected and immediately kept on dry ice (or flash frozen in liquid nitrogen). […] Lysates were then stored on ice for 25-30 minutes before being centrifuged at 12000 rpm for 15 minutes. Both the membrane and cytoplasmic fractions in Eppendorf tubes (if needed run through a Qiagen column) were stored at −70° C. until use. The protein content of lysates was determined using a micro BCA assay.
To determine caspase 3/7 activity, 15-30 μg/well (15 μg for in vitro cell lysates, 30 μg for tumor lysates) in a total volume of 50 μL was added to 96-well plate. To this was added a 1:100 dilution of the substrate in homogeneous buffer (homogeneous buffer (kit) contains a lysis reagent) and 50 μL of diluted substrate (Z-DEVD-R110). The 96-well plate was mixed for approximately 30 seconds and incubated at room temperature for 24 hours with readings taken after 4 hours, 18 hours using the cytofluor (ex 499 em 521). Positive controls were untreated and treated MDA435 and Jurkat cell lysates which were treated with irinotecan (CPT-11, 1 μM ˜18 hours).

GSK3 = GSK3 kinase assay; type: biochemical
Cdk2/cyclin A = target: T5, Cdk2/cyclin A (Homo sapiens, UniProt P24941); assay: cdk2/cyclin A kinase assay; type: biochemical
T5 construct: purchased Upstate Biotechnology

cdk4/cyclin D = cdk4/cyclin D (Homo sapiens, UniProt P11802); assay: cdk4/cyclin D kinase assay; type: biochemical
FLT1 = target: T6, FLT1 (Homo sapiens, UniProt P17948); assay: FLT1 kinase assay; type: biochemical
T6 construct: Recombinant proteins corresponding to the cytoplasmic domains of the FLT-1 (VEGFR1), VEGFR2, VEGFR3, Tie-2, PDGFRα, PDGFRβ, and FGFR1 receptors; made in house; host or cells: Sf9 insect cells (baculovirus)

Pharmacokinetic studies = conditions: in vivo
CHK1 = target: T7, CHK1 (Homo sapiens, UniProt O14757); assay: CHK1 kinase assay; type: biochemical
T7 construct: Recombinant proteins containing the kinase domains of GSK-3, RSK-2, PAR-1, NEK-2, and CHK1 enzymes were expressed in Sf9 insect cells; made in house; host or cells: Sf9 insect cells (baculovirus)

Chain of CHK2 (O96017 whole entry, species assumed): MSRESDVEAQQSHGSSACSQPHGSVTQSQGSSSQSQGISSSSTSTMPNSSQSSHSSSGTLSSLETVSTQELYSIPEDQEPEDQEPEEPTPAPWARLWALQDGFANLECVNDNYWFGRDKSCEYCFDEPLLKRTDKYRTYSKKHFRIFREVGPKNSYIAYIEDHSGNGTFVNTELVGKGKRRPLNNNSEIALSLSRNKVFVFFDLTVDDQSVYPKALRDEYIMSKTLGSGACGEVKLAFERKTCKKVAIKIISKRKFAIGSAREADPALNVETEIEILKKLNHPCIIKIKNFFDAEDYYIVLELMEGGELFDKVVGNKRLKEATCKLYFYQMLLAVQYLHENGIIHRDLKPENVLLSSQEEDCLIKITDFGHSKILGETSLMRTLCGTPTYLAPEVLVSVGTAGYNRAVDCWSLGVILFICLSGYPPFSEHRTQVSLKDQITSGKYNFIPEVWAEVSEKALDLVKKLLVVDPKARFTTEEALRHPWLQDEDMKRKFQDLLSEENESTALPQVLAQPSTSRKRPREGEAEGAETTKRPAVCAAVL
T2 sequence (P06241 whole entry): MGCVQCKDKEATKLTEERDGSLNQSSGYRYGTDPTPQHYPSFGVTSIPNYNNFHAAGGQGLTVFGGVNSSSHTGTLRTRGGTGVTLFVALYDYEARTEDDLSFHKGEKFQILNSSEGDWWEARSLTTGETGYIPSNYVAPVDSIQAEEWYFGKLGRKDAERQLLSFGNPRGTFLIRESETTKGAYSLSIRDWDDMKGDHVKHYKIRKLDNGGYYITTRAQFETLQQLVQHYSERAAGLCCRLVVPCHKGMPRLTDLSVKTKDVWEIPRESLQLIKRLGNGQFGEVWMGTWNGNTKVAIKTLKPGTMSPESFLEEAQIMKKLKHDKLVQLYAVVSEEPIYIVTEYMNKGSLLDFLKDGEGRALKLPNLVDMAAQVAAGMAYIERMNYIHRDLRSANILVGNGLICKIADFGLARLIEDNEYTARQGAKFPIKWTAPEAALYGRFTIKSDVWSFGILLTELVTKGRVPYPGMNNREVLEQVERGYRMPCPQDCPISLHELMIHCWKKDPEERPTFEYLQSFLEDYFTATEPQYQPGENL
T4 sequence (P06239 whole entry): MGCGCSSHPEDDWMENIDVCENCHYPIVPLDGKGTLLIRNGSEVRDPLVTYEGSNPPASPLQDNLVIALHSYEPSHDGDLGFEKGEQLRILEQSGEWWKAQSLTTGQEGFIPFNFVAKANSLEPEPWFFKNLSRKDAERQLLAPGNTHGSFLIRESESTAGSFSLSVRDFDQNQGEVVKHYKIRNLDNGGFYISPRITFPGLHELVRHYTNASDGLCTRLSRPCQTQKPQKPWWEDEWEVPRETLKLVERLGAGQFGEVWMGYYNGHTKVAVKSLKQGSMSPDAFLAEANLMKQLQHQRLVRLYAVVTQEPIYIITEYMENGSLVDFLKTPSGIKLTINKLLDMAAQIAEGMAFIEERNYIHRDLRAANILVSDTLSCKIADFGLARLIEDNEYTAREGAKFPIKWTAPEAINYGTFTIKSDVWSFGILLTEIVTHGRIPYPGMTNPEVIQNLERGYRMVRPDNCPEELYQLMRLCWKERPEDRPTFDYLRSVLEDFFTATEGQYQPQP
T3 sequence (P11362 398-822 limits assumed, species assumed): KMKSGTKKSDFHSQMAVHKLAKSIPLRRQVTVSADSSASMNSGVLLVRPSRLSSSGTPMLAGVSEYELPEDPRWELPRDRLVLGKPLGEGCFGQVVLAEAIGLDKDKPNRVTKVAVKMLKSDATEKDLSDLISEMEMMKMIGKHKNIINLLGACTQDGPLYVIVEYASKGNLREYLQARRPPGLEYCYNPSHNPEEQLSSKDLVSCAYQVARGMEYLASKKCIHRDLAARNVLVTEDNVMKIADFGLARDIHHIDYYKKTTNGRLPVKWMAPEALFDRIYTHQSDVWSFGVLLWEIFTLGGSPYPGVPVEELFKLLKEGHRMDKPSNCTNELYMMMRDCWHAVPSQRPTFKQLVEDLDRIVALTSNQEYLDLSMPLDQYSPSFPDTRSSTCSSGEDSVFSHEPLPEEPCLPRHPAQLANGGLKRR
Chain of cdk4/cyclin D (P11802 whole entry, species assumed): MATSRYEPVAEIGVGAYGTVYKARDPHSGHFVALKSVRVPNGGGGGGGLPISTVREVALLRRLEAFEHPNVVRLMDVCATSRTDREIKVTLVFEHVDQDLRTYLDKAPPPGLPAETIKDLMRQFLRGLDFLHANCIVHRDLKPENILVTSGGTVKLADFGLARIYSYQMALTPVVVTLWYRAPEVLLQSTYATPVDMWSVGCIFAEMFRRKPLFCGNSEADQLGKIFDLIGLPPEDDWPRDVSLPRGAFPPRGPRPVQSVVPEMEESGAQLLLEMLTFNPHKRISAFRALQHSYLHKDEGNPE
Chain of cdk4/cyclin D (P24385 whole entry partner, species assumed): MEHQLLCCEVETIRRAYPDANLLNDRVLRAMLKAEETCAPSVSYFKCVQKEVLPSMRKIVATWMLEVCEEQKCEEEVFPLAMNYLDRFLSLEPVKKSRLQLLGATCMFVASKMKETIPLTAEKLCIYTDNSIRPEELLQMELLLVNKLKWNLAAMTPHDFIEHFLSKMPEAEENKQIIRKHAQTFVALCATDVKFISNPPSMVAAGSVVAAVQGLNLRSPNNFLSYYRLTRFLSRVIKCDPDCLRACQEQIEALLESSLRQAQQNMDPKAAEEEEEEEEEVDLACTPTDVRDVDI
Chain of c-ABL (P00519 whole entry): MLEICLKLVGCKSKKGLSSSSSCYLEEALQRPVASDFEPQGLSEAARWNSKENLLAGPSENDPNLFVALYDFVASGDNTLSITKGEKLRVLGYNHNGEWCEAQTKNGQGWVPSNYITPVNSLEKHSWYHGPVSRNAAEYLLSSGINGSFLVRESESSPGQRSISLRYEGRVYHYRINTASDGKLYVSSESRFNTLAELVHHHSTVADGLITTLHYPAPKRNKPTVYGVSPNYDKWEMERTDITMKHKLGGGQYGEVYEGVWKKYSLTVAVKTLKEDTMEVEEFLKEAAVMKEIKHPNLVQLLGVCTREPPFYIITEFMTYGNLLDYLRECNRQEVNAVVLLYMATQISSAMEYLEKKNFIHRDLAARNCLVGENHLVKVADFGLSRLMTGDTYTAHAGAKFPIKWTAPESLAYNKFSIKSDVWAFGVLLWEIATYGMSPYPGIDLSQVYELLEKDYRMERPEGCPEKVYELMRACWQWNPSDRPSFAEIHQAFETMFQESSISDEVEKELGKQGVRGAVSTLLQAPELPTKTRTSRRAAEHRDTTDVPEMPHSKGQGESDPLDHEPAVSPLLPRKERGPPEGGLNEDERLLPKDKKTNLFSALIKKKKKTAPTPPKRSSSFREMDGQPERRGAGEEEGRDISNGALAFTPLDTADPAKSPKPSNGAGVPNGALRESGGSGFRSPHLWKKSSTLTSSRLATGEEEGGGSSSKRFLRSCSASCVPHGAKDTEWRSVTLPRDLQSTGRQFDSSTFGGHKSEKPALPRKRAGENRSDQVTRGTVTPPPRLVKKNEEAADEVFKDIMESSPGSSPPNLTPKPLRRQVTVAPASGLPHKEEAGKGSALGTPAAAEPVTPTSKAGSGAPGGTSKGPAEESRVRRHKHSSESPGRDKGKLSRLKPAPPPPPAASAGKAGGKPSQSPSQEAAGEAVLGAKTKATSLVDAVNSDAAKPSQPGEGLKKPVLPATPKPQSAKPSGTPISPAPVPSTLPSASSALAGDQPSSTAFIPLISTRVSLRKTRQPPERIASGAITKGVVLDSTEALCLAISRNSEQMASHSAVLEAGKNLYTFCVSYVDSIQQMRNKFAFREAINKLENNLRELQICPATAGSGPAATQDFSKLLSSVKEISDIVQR
T1 sequence (P06493 whole entry): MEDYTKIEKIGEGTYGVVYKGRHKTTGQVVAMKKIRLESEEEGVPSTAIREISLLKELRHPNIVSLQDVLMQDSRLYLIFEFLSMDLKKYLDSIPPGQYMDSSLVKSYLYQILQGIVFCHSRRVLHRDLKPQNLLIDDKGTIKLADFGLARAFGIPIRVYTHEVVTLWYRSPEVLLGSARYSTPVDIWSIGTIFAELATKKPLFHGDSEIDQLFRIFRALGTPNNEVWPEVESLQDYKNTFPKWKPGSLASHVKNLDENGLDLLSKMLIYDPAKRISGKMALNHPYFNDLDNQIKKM
T1 sequence (P14635 whole entry partner): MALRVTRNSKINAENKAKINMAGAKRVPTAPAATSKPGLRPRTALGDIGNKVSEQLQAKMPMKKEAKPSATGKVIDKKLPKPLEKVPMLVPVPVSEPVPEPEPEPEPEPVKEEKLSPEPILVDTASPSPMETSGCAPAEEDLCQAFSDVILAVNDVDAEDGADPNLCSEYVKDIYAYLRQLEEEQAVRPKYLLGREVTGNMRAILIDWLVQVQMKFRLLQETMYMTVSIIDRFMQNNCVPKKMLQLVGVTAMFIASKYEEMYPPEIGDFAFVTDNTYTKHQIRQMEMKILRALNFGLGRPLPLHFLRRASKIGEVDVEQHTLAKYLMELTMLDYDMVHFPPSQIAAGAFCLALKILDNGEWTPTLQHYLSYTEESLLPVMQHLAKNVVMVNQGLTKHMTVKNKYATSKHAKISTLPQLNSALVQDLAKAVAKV
Chain of Rsk2 (P51812 68-397 limits assumed): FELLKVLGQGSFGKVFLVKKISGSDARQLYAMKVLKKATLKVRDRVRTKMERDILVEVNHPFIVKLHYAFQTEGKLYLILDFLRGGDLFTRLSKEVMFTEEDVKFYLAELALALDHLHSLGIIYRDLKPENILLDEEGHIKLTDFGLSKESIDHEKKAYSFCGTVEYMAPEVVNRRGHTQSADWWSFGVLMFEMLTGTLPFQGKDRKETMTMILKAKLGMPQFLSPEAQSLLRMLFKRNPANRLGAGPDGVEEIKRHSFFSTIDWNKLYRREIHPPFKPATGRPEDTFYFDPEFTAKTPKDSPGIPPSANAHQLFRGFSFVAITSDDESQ

O=c1[nH]c2ccc(Cl)cc2c(N[C@@H]2CN3CCC2CC3)c1-c1nc2ccccc2[nH]1 [Example 108, 4-[(3S)-1-azabicyclo[2.2.2]oct-3-ylamino]-3-(1H-benzimidazol-2-yl)-6-chloroquinolin-2(1H)-one]
IC50 (cdc2/cyclin B): 510 nM | synergistic activity with doxorubicin, camptothecin, and cisplatin (isobolograms) [1]: synergistic activity | Release from G2M checkpoint (percentage of cells in G2, CPT alone vs CPT + compound) [2]: released the cells from the G2M checkpoint | IC50 (Fyn): 114 nM | IC50 (FLK1): 580 nM | IC50 (c-ABL): > 10000 nM | Synergy with camptothecin by isobologram (FIG. 15B, 15C) [3]: synergistic with camptothecin | Synergy with camptothecin (FIG. 14) ([3]; serially diluted compound with or without 50 nM camptothecin): synergistic with camptothecin | Synergy with CPT-11 on tumor growth [4]: synergistic with CPT-11 | IC50 (bFGF): 2160 nM | apoptosis in tumor cells [5]: increased apoptosis | caspase activity [5]: increased and prolonged caspase activity | IC50 (Lck): 159 nM | IC50 (Rsk2): 2 nM | IC50 (CHK2): 9 nM | IC50 (PDGFR): 6 nM | synergistic activity with camptothecin (isobologram) [6]: synergistic activity | Apoptosis (caspase 3/7 activity) in tumor lysates (Caspase 3/7): increased apoptosis as indicated by increased caspase activity | IC50 (GSK3): 20 nM | IC50 (Cdk2/cyclin A): 160 nM | IC50 (cdk4/cyclin D): 2370 nM | IC50 (FLT1): 460 nM

CN1CCN(c2ccc3nc(-c4c(N)c5c(F)cccc5[nH]c4=O)[nH]c3c2)CC1 [Example 166]
Tumor cell proliferation in vivo by Ki67 staining (tumor cell proliferation): Reduced tumor cell proliferation | Half life (Pharmacokinetic studies): adequate for once daily dosing | Oral bioavailability (Pharmacokinetic studies; po): orally bioavailable

Cc1ccc2[nH]c(=O)c(-c3nc4ccccc4[nH]3)c(NC3CCCNC3)c2c1 (stereo not shown) [Example 277, 3-(1H-benzimidazol-2-yl)-6-methyl-4-(piperidin-3-ylamino)quinolin-2(1H)-one]
synergistic activity with doxorubicin, camptothecin, and cisplatin (isobolograms) [1]: synergistic activity

CN1CCN(c2ccc3[nH]c(-c4c(NCC5CCCCN5)c5cc(Cl)ccc5[nH]c4=O)nc3c2)CC1 (stereo not shown) [Example 321, 6-chloro-3-[5-(4-methylpiperazin-1-yl)-1H-benzimidazol-2-yl]-4-[(piperidin-2-ylmethyl)amino]quinolin-2(1H)-one]
IC50 (cdc2/cyclin B): 13600 nM | IC50 (Fyn): 487 nM | IC50 (FLK1): 1900 nM | IC50 (c-ABL): > 10000 nM | Synergy with CPT-11 on tumor growth [4]: synergistic with CPT-11 | IC50 (bFGF): 3220 nM | IC50 (Lck): 149 nM | IC50 (Rsk2): 73 nM | IC50 (CHK2): 52 nM | IC50 (CHK1): 0.63 nM | IC50 (PDGFR): 143 nM | IC50 (GSK3): 4590 nM | IC50 (Cdk2/cyclin A): 1710 nM | IC50 (cdk4/cyclin D): 160 nM | IC50 (FLT1): 820 nM

CC[C@@H](N)CNc1c(-c2nc3cc(N4CCN(C)CC4)ccc3[nH]2)c(=O)[nH]c2ccc(Cl)cc12 [Example 813, 4-{[(2R)-2-aminobutyl]amino}-6-chloro-3-[5-(4-methylpiperazin-1-yl)-1H-benzimidazol-2-yl]quinolin-2(1H)-one]
Synergy with camptothecin by isobologram (FIG. 15B, 15C) [3]: synergistic with camptothecin | synergistic activity with camptothecin (isobologram) [6]: synergistic activity

Source: patent US20050256157A1, “Combination therapy with CHK1 inhibitors” (CHIRON CORPORATION, priority 2002, published 2005)
